According to the Deep4Chem optical property database:

Test: solvent given as SMILES

Molecule `COC(=O)c1ccccc1-c1c2ccc(=[NH2+])cc-2oc2cc(N)ccc12` has a fluorescence lifetime (in CC#N) of 4.1 ns, a fluorescence lifetime (in CCO) of 3.99 ns and a fluorescence lifetime (in CN(C)C=O) of 3.74 ns. For the same molecule, the fluorescence lifetime (in O) was 4.2 ns.

`CCC1(CC)c2cc(B(c3c(C)cc(C)cc3C)c3c(C)cc(C)cc3C)ccc2-c2c1c1c(c3c2C(CC)(CC)c2cc(N(c4ccccc4)c4ccccc4)ccc2-3)C(CC)(CC)c2cc(N(c3ccccc3)c3ccccc3)ccc2-1` showed a fluorescence lifetime (in C1CCOC1) of 14.4 ns.

Work on `CCN1CCCc2cc3c(cc21)Oc1cc2c(cc1=N3)C(CS(=O)(=O)[O-])CC(C)(C)[N+]=2CCCC(=O)[O-]` (stereo not given) yielded a fluorescence lifetime (in O) of 3.6 ns.

In the case of `Cc1ccc2nc3c(nc2c1)c(-c1ccccc1)nn3C`, the fluorescence lifetime (in C1CCCCC1) is reported as 9.32 ns, the fluorescence lifetime (in C1CCOC1) is reported as 23.6 ns and the fluorescence lifetime (in CC#N) is reported as 19.8 ns.

`O=C(O)c1ccc2cc3cc(C(=O)O)ccc3cc2c1` showed a fluorescence lifetime (in C1CCOC1) of 12.3 ns and a fluorescence lifetime (in CN(C)C=O) of 12.5 ns.

With `COc1ccc2cc(/C=C/C3=[O+][B-](F)(F)OC(/C=C/c4ccc5cc(OC)ccc5c4)=C3c3ccccc3)ccc2c1` the fluorescence lifetime (in ClCCl) was 1.86 ns.

Work on `CCCCCCn1c2cc(C(=O)OCC)ccc2c2c1c1ccc(C(=O)OCC)cc1n2CCCCCC` yielded a fluorescence lifetime (in CCCO) of 6.3 ns.

With `[NH-]c1cc(N)cc(-c2nc3ccccc3s2)c1` the fluorescence lifetime (in O) was 3.98 ns.

Work on `c1ccc(-c2nnc(-c3ccc(N4c5ccccc5N(c5ccccc5)c5ccccc54)cc3)o2)cc1` yielded a fluorescence lifetime (in Cc1ccccc1) of 9 ns and a fluorescence lifetime (in c1cc(-n2c3ccccc3c3ccccc32)cc(-n2c3ccccc3c3ccccc32)c1) of 7 ns.

For `N#Cc1cc(-c2ccc(F)cc2)cnc1O`, the fluorescence lifetime (in CC#N) was 5.22 ns, the fluorescence lifetime (in CO) was 5.23 ns and the fluorescence lifetime (in O) was 5.38 ns.

Molecule `CCCCCCC(CCCCCC)N1C(=O)c2cccc3c(-c4ccc(-c5ccc(OC)cc5)cc4)ccc(c23)C1=O` has a fluorescence lifetime (in CCCCCC) of 1.35 ns, a fluorescence lifetime (in CCCCCCCCCCCCCC) of 1.43 ns and a fluorescence lifetime (in CCCCCCCCCCCO) of 3.21 ns. It also gave a fluorescence lifetime (in CCCCO) of 1.05 ns, a fluorescence lifetime (in CN(C)C=O) of 1.91 ns and a fluorescence lifetime (in Cc1ccccc1) of 1.4 ns. It also gave a fluorescence lifetime (in ClC(Cl)Cl) of 2.93 ns.

For `CN1C(=CC2=C([O-])C(=CC3=[N+](C)c4ccccc4C3(C)C)C2=O)C(C)(C)c2cc(Cl)ccc21`, the fluorescence lifetime (in CO) was 0.2 ns and the fluorescence lifetime (in ClC(Cl)Cl) was 1.05 ns.

Work on `O=C([O-])c1ccc(C(=O)[O-])c(C2=c3cc4c5c(c3Oc3c2cc2c6c3CCCN6CCC2)CCC[N+]=5CCC4)c1` yielded a fluorescence lifetime (in CCO) of 5.21 ns and a fluorescence lifetime (in O) of 4.79 ns.

In the case of `CCOc1cc2c(cc1/C=C/C1=CC(=C(C#N)C#N)CC(C)(C)C1)c1ccccc1n2CC`, the fluorescence lifetime (in C1CCOC1) is reported as 4.47 ns, the fluorescence lifetime (in CC#N) is reported as 3.81 ns and the fluorescence lifetime (in CCO) is reported as 4.28 ns. The fluorescence lifetime (in CCOC(C)=O) was 7.08 ns, the fluorescence lifetime (in CN(C)C=O) was 4.01 ns and the fluorescence lifetime (in CS(C)=O) was 4.94 ns. For the same molecule, the fluorescence lifetime (in Cc1ccccc1) was 3.84 ns, the fluorescence lifetime (in ClC(Cl)Cl) was 4.37 ns and the fluorescence lifetime (in ClCCl) was 6.24 ns.

For `F[B-]1(F)OC(c2cccc(Br)c2)=Cc2c3ccccc3c3ccccc3[n+]21`, the fluorescence lifetime (in ClC(Cl)Cl) was 0.315 ns.

Molecule `CCN1\C(=C/C=C/C=C/C2=[N+](CC)c3ccc4cc(Br)ccc4c3C2(C)C)C(C)(C)c2c1ccc1cc(Br)ccc21` has a fluorescence lifetime (in C1CCOC1) of 1.37 ns, a fluorescence lifetime (in CC#N) of 1.01 ns and a fluorescence lifetime (in CC(C)=O) of 1.12 ns. The fluorescence lifetime (in CCO) was 1.03 ns, the fluorescence lifetime (in CN(C)C=O) was 1.39 ns and the fluorescence lifetime (in CO) was 0.84 ns. It also gave a fluorescence lifetime (in CS(C)=O) of 1.5 ns and a fluorescence lifetime (in ClCCl) of 1.46 ns.

`ClP1(Cl)=N[P@](Cl)(Oc2ccc3ccc4cccc5ccc2c3c45)=N[P@@](Cl)(Oc2ccc3ccc4cccc5ccc2c3c45)=N1` showed a fluorescence lifetime (in ClCCl) of 3.02 ns.

`CSc1ccc(C#Cc2ccc(C#Cc3ccc(C#Cc4ccccc4C#N)cc3C#N)cc2C#N)cc1` gave a fluorescence lifetime (in ClC(Cl)Cl) of 1.29 ns.

Work on `CCC1(CC)c2cc(-c3ccc(-c4ccc5c(c4)C(CC)(CC)c4cc(C(C)(C)C)ccc4-5)cc3)ccc2-c2ccc(C(C)(C)C)cc21` yielded a fluorescence lifetime (in CCCCC) of 0.74 ns, a fluorescence lifetime (in CCCCCC) of 0.69 ns and a fluorescence lifetime (in CCCCCCC) of 0.7 ns. It also gave a fluorescence lifetime (in CCCCCCCC) of 0.7 ns, a fluorescence lifetime (in CCCCCCCCC) of 0.72 ns and a fluorescence lifetime (in CCCCCCCCCC) of 0.79 ns. It also gave a fluorescence lifetime (in CCCCCCCCCCCC) of 0.78 ns, a fluorescence lifetime (in CCCCCCCCCCCCC) of 0.82 ns and a fluorescence lifetime (in CCCCCCCCCCCCCCC) of 0.81 ns. For the same molecule, the fluorescence lifetime (in CCCCCCCCCCCCCCCC) was 0.82 ns, the fluorescence lifetime (in CCCCCCCCCCO) was 0.79 ns and the fluorescence lifetime (in CCCCCCCCCO) was 0.87 ns. For the same molecule, the fluorescence lifetime (in CCCCCCCCO) was 0.84 ns, the fluorescence lifetime (in CCCCCCCO) was 0.8 ns and the fluorescence lifetime (in CCCCCCO) was 0.81 ns. The fluorescence lifetime (in CCCCCO) was 0.77 ns, the fluorescence lifetime (in CCCCO) was 0.79 ns and the fluorescence lifetime (in CCCO) was 0.72 ns. The fluorescence lifetime (in CCO) was 0.82 ns and the fluorescence lifetime (in CO) was 0.8 ns.
